Results on 2 molecules are retold here after patent publication US10329268B2, “Processes for preparing medicaments for the treatment of cardiovascular diseases and intermediates for use therein” (Bial-Portela & CA., S.A., priority 2013, dated 2019).

The nature of series [1]: Solubility in organic solvents according to Eur. Ph. Chapter 5.11. The format is physicochemical. Here is the method:
The solubility of non-micronized and micronized (R)-5-(2-(benzylamino)ethyl)-1-(6,8-difluorochroman-3-yl)-1H-imidazole-2(3H)-thione in several organic solvents was determined.
Solubility Solubility was evaluated according to Eur. Ph. Chapter 5.11 at room temperature.
The following descriptions are used to describe the degree of solubility: […]

Series [2] can be described thus: Aqueous solubility at 37° C. in solutions of pH 1.2 to 9.0. It is filed as physicochemical. Here is the method:
The aqueous solubility of (R)-5-(2-(benzylamino)ethyl)-1-(6,8-difluorochroman-3-yl)-1H-imidazole-2(3H)-thione was determined in triplicate at 37° C. Aqueous solutions of HCl (pH 1.2, 2.0, 3.0), potassium chloride (pH 1.2, 2.0), acid phthalate (pH 3.0), acetate (pH 4.5, 5.5), phosphate (pH 7.4) and boric acid (pH 9.0) were tested.

For series [3], the target named is T1, dopamine-β-hydroxylase (Homo sapiens, UniProt P09172).
T1 sequence (P09172 1-617): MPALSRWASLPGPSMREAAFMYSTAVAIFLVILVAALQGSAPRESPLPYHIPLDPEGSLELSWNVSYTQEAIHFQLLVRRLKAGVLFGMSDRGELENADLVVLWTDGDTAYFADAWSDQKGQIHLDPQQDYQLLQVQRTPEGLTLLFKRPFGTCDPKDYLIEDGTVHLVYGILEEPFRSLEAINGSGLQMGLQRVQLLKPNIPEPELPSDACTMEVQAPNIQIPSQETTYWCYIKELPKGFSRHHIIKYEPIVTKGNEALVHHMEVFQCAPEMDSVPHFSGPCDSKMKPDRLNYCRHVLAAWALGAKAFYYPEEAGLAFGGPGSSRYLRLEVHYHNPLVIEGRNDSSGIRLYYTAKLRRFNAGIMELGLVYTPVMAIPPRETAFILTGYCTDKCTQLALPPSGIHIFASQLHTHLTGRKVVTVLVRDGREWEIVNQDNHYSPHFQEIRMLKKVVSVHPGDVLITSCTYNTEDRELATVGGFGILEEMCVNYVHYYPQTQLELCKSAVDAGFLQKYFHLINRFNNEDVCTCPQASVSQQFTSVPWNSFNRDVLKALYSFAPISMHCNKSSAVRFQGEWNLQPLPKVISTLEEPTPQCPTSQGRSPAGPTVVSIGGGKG
The note with it: background statement, WO2004/033447 / WO2008/136695; cited from earlier work.

For series [4] the following is noted: background statement; cited from earlier work.

For the molecule `Fc1cc(F)c2c(c1)C[C@@H](n1c(CCNCc3ccccc3)c[nH]c1=S)CO2` [(R)-5-(2-(benzylamino)ethyl)-1-(6,8-difluorochroman-3-yl)-1H-imidazole-2(3H)-thione], the “Solubility in polar organic aprotic solvents” value in series [1] (all of the polar organic aprotic solvents tested) is reported as “either sparingly soluble, slightly soluble or very slightly soluble”. In addition, the Solubility description entry in series [1] (micronized particles, 1,4-Dioxane, room temperature) is listed as “Very slightly soluble (from 1000 to 10,000 parts)”; in series [1] (micronized particles, 2-propanol, room temperature) it was “Insoluble”; in series [1] (micronized particles, Absolute ethanol, room temperature), “Very slightly soluble (from 1000 to 10,000 parts)”; in series [1] (micronized particles, Acetone, room temperature), “Slightly soluble (from 100 to 1000 parts)”; in series [1] (micronized particles, Acetonitrile, room temperature) it was “Very slightly soluble (from 1000 to 10,000 parts)”; in series [1] (micronized particles, Chloroform, room temperature), “Slightly soluble (from 100 to 1000 parts)”. In addition, the Solubility description entry is “Insoluble” in series [1] (micronized particles, Cyclohexane, room temperature); “Slightly soluble (from 100 to 1000 parts)” in series [1] (micronized particles, DMSO, room temperature); “Very slightly soluble (from 1000 to 10,000 parts)” in series [1] (micronized particles, Dichloromethane, room temperature); “Sparingly soluble (from 30 to 100 parts)” in series [1] (micronized particles, Dimethylformamide, room temperature); “Very slightly soluble (from 1000 to 10,000 parts)” in series [1] (micronized particles, Ethyl acetate, room temperature); “Practically insoluble (greater than or equal to 10,000 parts)” in series [1] (micronized particles, Iso-octane (2,2,4-trimethylpentane), room temperature). The Solubility description entry in series [1] (micronized particles, Methanol or acetonitrile acidified with 0.1% formic acid or TFA, room temperature) is reported as “Slightly soluble (from 100 to 1000 parts)”; in series [1] (micronized particles, Methanol, room temperature), “Very slightly soluble (from 1000 to 10,000 parts)”; in series [1] (micronized particles, Methyl ethyl ketone, room temperature), “Slightly soluble (from 100 to 1000 parts)”; in series [1] (micronized particles, N,N-methylpirrolidone, room temperature), “Sparingly soluble (from 30 to 100 parts)”; in series [1] (micronized particles, Tetrahydrofuran, room temperature) it was “Sparingly soluble (from 30 to 100 parts)”; in series [1] (non-micronized particles, 1,4-Dioxane, room temperature), “Slightly soluble (from 100 to 1000 parts)”. Also, the Solubility description result in series [1] (non-micronized particles, 2-propanol, room temperature) is recorded as “Insoluble”; in series [1] (non-micronized particles, Absolute ethanol, room temperature), “Practically insoluble (greater than or equal to 10,000 parts)”; in series [1] (non-micronized particles, Acetone, room temperature), “Slightly soluble (from 100 to 1000 parts)”; in series [1] (non-micronized particles, Acetonitrile, room temperature), “Very slightly soluble (from 1000 to 10,000 parts)”; in series [1] (non-micronized particles, Chloroform, room temperature), “Very slightly soluble (from 1000 to 10,000 parts)”; in series [1] (non-micronized particles, Cyclohexane, room temperature), “Insoluble”. Also, the Solubility description entry in series [1] (non-micronized particles, DMSO, room temperature) is recorded as “Sparingly soluble (from 30 to 100 parts)”; in series [1] (non-micronized particles, Dichloromethane, room temperature), “Slightly soluble (from 100 to 1000 parts)”; in series [1] (non-micronized particles, Dimethylformamide, room temperature) it was “Sparingly soluble (from 30 to 100 parts)”; in series [1] (non-micronized particles, Ethyl acetate, room temperature), “Very slightly soluble (from 1000 to 10,000 parts)”; in series [1] (non-micronized particles, Hexafluoroisopropanol, room temperature), “Sparingly soluble (from 30 to 100 parts)”; in series [1] (non-micronized particles, Iso-octane (2,2,4-trimethylpentane), room temperature) it was “Insoluble”. The Solubility description result in series [1] (non-micronized particles, Isopropyl acetate, room temperature) was “Very slightly soluble (from 1000 to 10,000 parts)”; in series [1] (non-micronized particles, Methanol or acetonitrile acidified with 0.1% formic acid or TFA, room temperature), “Sparingly soluble (from 30 to 100 parts)”; in series [1] (non-micronized particles, Methanol, room temperature), “Very slightly soluble (from 1000 to 10,000 parts)”; in series [1] (non-micronized particles, Methyl ethyl ketone, room temperature), “Slightly soluble (from 100 to 1000 parts)”; in series [1] (non-micronized particles, N,N-methylpirrolidone, room temperature), “Sparingly soluble (from 30 to 100 parts)”; in series [1] (non-micronized particles, Tetrahydrofuran, room temperature), “Sparingly soluble (from 30 to 100 parts)”. The Solubility description entry is recorded as “Very slightly soluble (from 1000 to 10,000 parts)” in series [1] (non-micronized particles, Toluene, room temperature) and “Slightly soluble (from 100 to 1000 parts)” in series [1] (non-micronized particles, Trifluoroethanol, room temperature). The “Solubility in polar organic solvents” value in series [1] (most of the polar organic solvents tested) is recorded as “mostly either sparingly soluble, slightly soluble or very slightly soluble”. The “Change in the solubility profile, before versus after micronization” value in series [1] (organic solvents, room temperature) is reported as “no overall significant changes”. Further, the “Medium of maximum aqueous solubility” value in series [2] is “HCl 0.01 (pH 2.0)”. Also, the “Aqueous solubility after micronization relative to non-micronized” value in series [2] (HCl 0.01 (pH 2.0)) was “lower”. Besides, the “Aqueous solubility as a function of pH” value in series [2] (pH 1.2 to 9.0, both non-micronized and micronized) is “decreases with the increase of pH”.

As to `Cl.NCCc1c[nH]c(=S)n1[C@H]1COc2c(F)cc(F)cc2C1` [Compound 1, (R)-5-(2-Aminoethyl)-1-(6,8-difluorochroman-3-yl)-1,3-dihydroimidazole-2-thione hydrochloride], the “Inhibition of dopamine-β-hydroxylase (DβH)” value in series [3] is listed as “potent”. In addition, the Toxicity entry in series [4] is reported as “non-toxic”.
